Assay results as given in patent US20250297323A1, “METHODS OF USING LONG NON-CODING RNA-8 (TROLL-8) AS A TARGET FOR CANCER DETECTION AND TREATMENT” (H. LEE MOFFITT CANCER CENTER AND RESEARCH INSTITUTE, INC., priority 2022, published 2025).

How the values were obtained:
CA1D cells = assay: Seahorse XF Cell Mito Stress Test (oxygen consumption rate); type: cell-based, human; settings: siTROLL-8 vs siNT CA1D cells; OCR normalized to groups without inhibitor; Etomoxir 4.0 μM, UK5099 2.0 μM, BPTES 3.0 μM
Protocol: The oxygen consumption rate (OCR) of cells was measured on the Seahorse XF96 extracellular flux analyzer (Agilent Technologies) using a Seahorse XF Cell Mito Stress Test kit in accordance with the manufacturer's instructions. Briefly, siNT or siTROLL-8 CA1D cells (3.0×10^4 cells/well) were seeded in 6 wells (technical replicates) of a 96 well Agilent Seahorse XF Cell Culture Microplate in full growth medium and attached overnight. Hydrate a sensor cartridge in Seahorse XF Calibrant in a non-CO2 incubator at 37° C. overnight. On the day of assay, cells were carefully washed and the growth medium was replaced with prewarmed Seahorse XF base medium (Agilent Technologies) supplemented with 5 mM HEPES, 10 mM glucose, 1 mM sodium pyruvate, and 2 mM L-Glutamine, pH 7.4). The plates of cells in assay medium were incubated in a non-CO2 incubator at 37° C. for 1 h. Prepare compound stock solutions for loading sensor cartridge ports and load the XF96 sensor cartridge to Seahorse XF96 analyzer. Take three basal measurements and determine oxygen and proton concentration in the medium. […]

CPT1A = assay: LC-MS of carnitine and fatty acyl-carnitine to reflect CPT1A activity; type: cell-based, human
Protocol: 1.5×10^6 CA1D cells were transfected with either siNT (negative control) or siTROLL-8. 48 h after the transfection, the cells were collected and washed 2-3 times with ice-cold PBS. To analyze global metabolite abundances regulated by TROLL-8, an aliquot of the internal standard mixture was added into siNT and siTROLL-8 cell samples for untargeted metabolomics analysis. The internal standards were obtained from Cambridge Isotope Labs and include the following labelled compounds: Glucose (2,3,4,5,6-^13C5), D-Glucose-6-phosphate (U-^13C6), D-Fructose-1,6-bisphosphate (U-^13C6), L-Serine (^13C3), Glycine (1,2-^13C2), L-Cysteine (3,3-D2), Phosphoenol Pyruvate (2,3-^13C2), Lactate (3,3,3-D3), Pyruvate (D3), Acetyl-1,2-^13C2 CoA, Citric Acid (2,2,4,4-D4), Alpha-Ketoglutaric Acid (1,2,3,4-^13C4), Succinic Acid (D4), Fumaric Acid (D4), DL-Malic Acid (2,3,3-D3), D-Fructose-6-phosphate (U-^13C6). 1 ml of precooled 80% methanol extraction solvent (kept in the −80° C. freezer at least 1 h prior to extraction) was added to the sample for protein precipitation. After addition of the extraction solvent, the samples were vortexed and centrifuged at 18,800×g (Microfuge 22R, Beckman Coulter) at 0° C. for 10 min. Then, the samples were incubated for 30 min in a −80° C. freezer to increase metabolite extraction. After incubation, the samples were immediately centrifuged at 18,800×g at 4° C. for 10 min. Then the supernatant was transferred to a new microcentrifuge tube for drying in SpeedVac vacuum concentrator (Thermo Fisher Scientific). The protein pellet was resolubilized using aqueous 20 mM HEPES with 8M urea for Bradford Assay to measure the protein concentration. Dried metabolites were re-dissolved in 20 μl aqueous 80% methanol. Ultra-high performance liquid chromatography-high resolution mass spectrometry (UHPLC-HRMS) was performed using a Vanquish UHPLC interfaced with a Q Exactive HF quadrupole-orbital ion trap mass spectrometer (Thermo, San Jose, CA). Chromatographic separation was performed using a SeQuant ZIC-pHILIC guard column (2.1 mm ID×20 mm length, 5 μm particle size) and a SeQuant ZIC-pHILIC LC column (2.1 mm ID×150 mm length, 5 μm particle size, MilliporeSigma, Burlington, MA). Mobile phase A was aqueous 10 mM ammonium carbonate and 0.05% ammonium hydroxide, and mobile phase B was 100% acetonitrile. The gradient program included the following steps: start at 80% B, a linear gradient from 80 to 20% B over 13 min, stay at 20% B for 2 min, return to 80% B in 0.1 min, and re-equilibration for 4.9 min for a total run time of 20 min. The flow rate was set to 0.250 ml/min. The autosampler was cooled to 5° C. and the column temperature was set to 30° C. Sample injection volume was 2 μl for both positive ion mode and negative ion mode electrospray ionization. Full MS was performed in positive and negative mode separately detecting ions from m/z 65 to m/z 900. MZmine software, version 3.39, was used to identify and quantify metabolites by matching by m/z and RT to an in-house library. Data normalization was carried out using the protein concentration. For acetyl-CoA detection, spike heavily labelled internal standards (3 labelled Acyl CoAs) into each sample. For fatty acyl-carnitine detection, spike heavily labelled internal standards (3 labelled Acyl Carnitine) into each sample. An aliquot (300 μl) of cold 80% methanol extraction solvent (leave in −80° C. at least one hour prior to the experiments) is added to the sample for protein precipitation. After vortexing, the samples are then incubated in the −80° C. freezer for 30 mins, followed by centrifugation at 18,800×g (Microfuge 22R, Beckman Coulter) at 0° C. for 10 mins. Then the supernatant is transferred to new Eppendorf tubes for drying in SpeedVac vacuum concentrator (Thermo Fisher Scientific). The protein pellet is left behind and proceeds for protein concentration measurement by Bradford Assay. […]

[1] = CA1D cells with shCPT1A and CPT1A WT/KQ/KR overexpression, mutants compared to CPT1A overexpression

Row | Structure (SMILES) | impact of fuel oxidation inhibitor in basal respiration upon TROLL-8 depletion (CA1D cells) | fatty acylcarnitine level (CPT1A; [1]) | free carnitine level (CPT1A; [1]) | long-chain fatty acylcarnitine levels (CPT1A; CA1D cells, 10 μM Etomoxir) | medium-chain fatty acylcarnitine levels (CPT1A; CA1D cells, 10 μM Etomoxir) | short-chain fatty acylcarnitine levels (CPT1A; CA1D cells, 10 μM Etomoxir) | level of carnitine (substrate for CPT1A activity) (CPT1A; CA1D cells, siNT, siTROLL-8, siNT+Eto, 10 μM Etomoxir)
1 | N#C/C(=C\c1cn(-c2ccccc2)c2ccccc12)C(=O)O [UK5099] | increased the impact | – | – | – | – | – | –
2 | CCOC(=O)[C@@]1(CCCCCCOc2ccc(Cl)cc2)CO1 [Etomoxir] | increased the impact | reduced | augmented | significantly reduced | significantly reduced | significantly reduced | increased
